The text below walks through data of US8461336B2, “Boron-containing small molecules” (Anacor Pharmaceuticals, Inc., priority 2008, dated 2013).

Counter-ions that a name gives are not always drawn.

One data set deals with K-ATP channel. The settings on record: example given in the text for K-ATP channel modulation; cited from earlier work.
The next data set addresses T1, ROCK2 (Homo sapiens, UniProt O75116).
T1 construct: recombinant human protein (amino acids 11-552); His (N); purchased Reaction Biology Corp., Malvern, Pa; host or cells: insect cells
Description: Kinase assay ROCK2 ([gamma-33P]ATP, S6 kinase peptide substrate). It counts as biochemical. The settings on record: 20 nM recombinant human ROCK2, room temperature. The method, then:
(§1) The kinase assays were performed at room temperature using 20 nM ROCK1 or ROCK2 enzyme and 20 uM peptide substrate, [gamma-^33P]ATP, and drug concentration were varied. The ROCK1 enzyme is recombinant human protein, Catalytic Domain (amino acids 1-535) (Reaction Biology Corp., Malvern, Pa.), GST-tagged, expressed in insect cells. MW=[…]. The ROCK2 enzyme is recombinant human protein (amino acids 11-552), N-terminal histidine-tagged, expressed in insect cells, MW=63.3 kDa (Reaction Biology Corp., Malvern, Pa.). The substrate was a peptide derived from S6 kinase peptide for both ROCK1 & 2 assays; [[…]], Mw=3630 Da (Reaction Biology Corp., Malvern, Pa.). The reaction buffer contained 20 mM HEPES-HCl, pH 7.5, 10 mM MgCl2, 1 mM EGTA, 0.02% Brij35, 0.1 mM Na3VO4, 0.02 mg/ml BSA, 2 mM DTT, and 1% DMSO. Enzyme/substrate/drug mixture were added and incubated for 20 min to ensure compound was equilibrated and bound to the enzyme. Then concentrations of ATP were added to initiate the reaction. The activity was monitored by filter plate capture of the radioactive peptide using ion exchange filtration (P81, Whatmann) and washed extensively. The reactions were monitored every 5-15 min to obtain progress curve with time course. At each time point, radioisotope signal (“P) was converted into “uM phosphate transferred to substrate”, and was plotted against time. The initial linear slope of progress curve was obtained by linear regression. The slopes (or velocity; uM/min) were then plotted against ATP concentrations for Michaelis-Menten plot, and subsequent Lineweaver-Burk plot (double-reciprocal plot) and secondary plot, using GraphPad Prism software.

The target in another data set is T2, ROCK1 (Homo sapiens, UniProt Q13464).
T2 construct: Catalytic Domain (amino acids 1-535); GST; purchased Reaction Biology Corp., Malvern, Pa; host or cells: insect cells
T2 sequence (Q13464 1-535): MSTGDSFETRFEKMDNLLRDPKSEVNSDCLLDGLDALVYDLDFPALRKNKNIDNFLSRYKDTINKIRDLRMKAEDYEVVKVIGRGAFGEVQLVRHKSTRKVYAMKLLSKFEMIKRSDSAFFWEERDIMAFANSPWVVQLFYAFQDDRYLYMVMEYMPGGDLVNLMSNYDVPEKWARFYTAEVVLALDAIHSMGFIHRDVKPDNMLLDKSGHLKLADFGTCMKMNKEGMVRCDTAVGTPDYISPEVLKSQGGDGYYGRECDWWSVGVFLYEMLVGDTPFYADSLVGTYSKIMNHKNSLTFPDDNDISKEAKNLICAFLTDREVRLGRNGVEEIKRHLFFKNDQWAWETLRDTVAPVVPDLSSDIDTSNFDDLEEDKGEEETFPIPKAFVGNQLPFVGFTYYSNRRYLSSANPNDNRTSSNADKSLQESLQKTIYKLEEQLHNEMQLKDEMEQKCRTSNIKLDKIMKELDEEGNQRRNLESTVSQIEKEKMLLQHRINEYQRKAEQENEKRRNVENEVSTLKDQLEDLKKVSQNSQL
Description: Kinase assay ROCK1 ([gamma-33P]ATP, S6 kinase peptide substrate). It counts as biochemical. The settings on record: 20 nM recombinant human ROCK1 catalytic domain, room temperature. The method, then: as §1

The next data set concerns TNF-α. The experiment in a line: Cytokine assay, LPS-induced TNF-α in human PBMC. It counts as cell-based. As to conditions: 1 μg/mL LPS, supernatant at 24 hours. The method, then:
The ability of the compounds described herein to inhibit pro-inflammatory cytokines or phosphodiesterases were tested.
Frozen human peripheral blood mononucleocytes (PBMC) were thawed and centrifuged. Cryopreservation media was aspirated off of the cell pellet, and the cells were resuspended in fresh culture media (CM) comprising RPMI 1640 and 10% FBS in 96 well plates. Test article was dissolved in DMSO to form a 10 mM sample (DMSO, 100%). The 10 mM samples were diluted to 100 μM in CM (DMSO, 1%), then further diluted to 10, 1, 0.1, 0.01 μM in 200 μL of CM (n=3). […] IL-23 was assayed using a commercial ELISA kit (R&D Systems).

T1 sequence (O75116 11-552): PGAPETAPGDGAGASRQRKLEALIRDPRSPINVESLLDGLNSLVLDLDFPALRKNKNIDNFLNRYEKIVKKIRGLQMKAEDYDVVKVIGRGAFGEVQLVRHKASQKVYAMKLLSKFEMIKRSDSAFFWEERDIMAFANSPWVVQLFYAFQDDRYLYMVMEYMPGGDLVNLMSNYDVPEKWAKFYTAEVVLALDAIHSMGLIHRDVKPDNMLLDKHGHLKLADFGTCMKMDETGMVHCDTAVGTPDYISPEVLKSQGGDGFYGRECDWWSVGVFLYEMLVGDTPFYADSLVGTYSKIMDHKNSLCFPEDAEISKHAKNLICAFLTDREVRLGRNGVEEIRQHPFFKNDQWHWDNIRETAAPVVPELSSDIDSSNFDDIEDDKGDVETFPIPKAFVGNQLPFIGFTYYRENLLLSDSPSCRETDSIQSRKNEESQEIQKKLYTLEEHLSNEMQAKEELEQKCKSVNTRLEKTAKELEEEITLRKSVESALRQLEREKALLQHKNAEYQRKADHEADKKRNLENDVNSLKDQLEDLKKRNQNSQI

On to `CC1=NS(=O)(=O)c2cc(Cl)ccc2N1` [diazoxide], for which, at K-ATP channel, the pKi – broadly, −log10 of the Ki, conventionally taken in molar units – is on record as 3.8. Take `NCc1ccc(Oc2ccc3c(c2)B(O)OC3)c(F)c1` [W]: the figures for the IC50 at ROCK2, at ROCK1 and in the data set on TNF-α were 0.86 µM, 2.44 µM and 0.019 µM, respectively. For `NCc1ccc(Oc2ccc3c(c2)B(O)OC3)cc1` (as salt: chloride) [(4-(1-hydroxy-1,3-dihydrobenzo[c][1,2]oxaborol-6-yloxy)phenyl)methanaminium chloride], the melting point (in general, the temperature, or range, at which the solid turns liquid) is greater than 230 °C. With `NCc1cccc(Oc2ccc3c(c2)B(O)OC3)c1` [U, (3-(1-hydroxy-1,3-dihydrobenzo[c][1,2]oxaborol-6-yloxy)phenyl)methanaminium chloride], the IC50 (commonly the midpoint of a concentration-inhibition curve) came to 40.2 µM on ROCK2 and 69.5 µM on ROCK1.

With `NCc1ccc(Oc2ccc3c(c2)B(O)OC3)cc1` [T, (4-(1-hydroxy-1,3-dihydrobenzo[c][1,2]oxaborol-6-yloxy)phenyl)methanaminium chloride], the IC50 at ROCK2 was determined as 3.1 µM; on ROCK1, 8.1 µM. On to `NCc1ccc(Oc2ccc3c(c2)B(O)OC3)c(Cl)c1` [X], for which the values for the IC50 on ROCK2 and at ROCK1 were 2.11 µM and 4.75 µM, respectively.

For the molecule `NCc1ccc(Oc2ccc3c(c2)COB3O)cc1` [V, (4-(1-hydroxy-1,3-dihydrobenzo[c][1,2]oxaborol-5-yloxy)phenyl)methanaminium chloride], the IC50 at ROCK2 came out at 10.1 µM; on ROCK1, 25.1 µM. As to `N#Cc1ccc(Oc2ccc3c(c2)COB3O)nc1OC1CCCC1` [Z, 2-Cyclopentyloxy-6-(1-hydroxy-1,3-dihydro-benzo[c][1,2]oxaborol-5-yloxy)-nicotinonitrile], the IC50 amounted to 9.09 µM on ROCK2 and 18.1 µM on ROCK1.
